{
  "source": "patent US20100062063A1",
  "about": "“LIGHT-STABLE SOLID PHARMACEUTICAL COMPOSITION OF RAMOSETRON” (ASTELLAS PHARMA INC., priority 2006, published 2010)",
  "key": {"[1]": {"assay": "Area under the light absorbance spectrum curve of a 0.001 w/v % aqueous solution (UV meter, trapezoidal formula)", "format": "physicochemical", "conditions": "0.001 w/v % aqueous solution of the added compound", "method": "FIG. 1 is a graph showing the relationship between the absorbance wavelength and the absorbance of various compounds. The measurement method is as follows. A 0.001 w/v % aqueous solution of a drug and various stabilizers was prepared, and the absorbances at each absorbance wavelength in a range of 200 nm to 600 nm were measured. […] Condition: scan speed: medium speed, sampling pitch: 1.0, length of light path: 10 mm, width of a slit: 2.0 nm.\nFIG. 2 is a graph showing a method for calculating the area under the spectrum curve of various compounds. The area under the spectrum curve was calculated by a trapezoidal formula. That is, for the spectrum of each of the compounds, the trapezoidal area was calculated at every sampling pitch (1.0 nm), and a desired area was measured from the total value of the trapezoidal areas in the wavelength range."}, "[2]": {"assay": "Stability under irradiation with a white fluorescent lamp of 1000 Lux, assay value by liquid chromatography", "conditions": "compound added to ramosetron hydrochloride preparation", "experimental": "The quantitative determination was carried out by liquid chromatography."}, "[3]": {"assay": "Stability under sealing of an HDPE plastic bottle at 40° C. and 75% RH, assay value by liquid chromatography", "format": "physicochemical", "conditions": "compound added to ramosetron or its salt"}},
  "note": "Entries after “also recorded” stand apart in the source; their conditions may differ.",
  "data": [
    {"compound": "O=C([O-])c1ccccc1-c1c2cc(I)c(=O)c(I)c-2oc2c(I)c([O-])c(I)cc12.[Na+].[Na+]", "note": "[Food Red No. 3, reference compound]", "values": [
      {"measurement": "area under the spectrum curve at the wavelength range of 220 nm to 240 nm", "setting": "[1]", "result": 4.2},
      {"measurement": "area under the spectrum curve at the wavelength range of 280 nm to 300 nm", "setting": "[1]", "result": 1.8}
    ]},
    {"compound": "O=S(=O)([O-])c1cc(S(=O)(=O)[O-])c2c(N=Nc3ccc(S(=O)(=O)[O-])c4ccccc34)c(O)ccc2c1.[Na+].[Na+].[Na+]", "note": "[Food Red No. 102]", "values": [
      {"measurement": "area under the spectrum curve at the wavelength range of 220 nm to 240 nm", "setting": "[1]", "result": 10.0},
      {"measurement": "area under the spectrum curve at the wavelength range of 280 nm to 300 nm", "setting": "[1]", "result": 3.1}
    ]},
    {"compound": "OC[C@@H](O)[C@@H](O)[C@H](O)[C@H](O)CO", "note": "[mannitol, reference compound]", "values": [
      {"measurement": "area under the spectrum curve at the wavelength range of 220 nm to 240 nm", "setting": "[1]", "result": 0.1},
      {"measurement": "area under the spectrum curve at the wavelength range of 280 nm to 300 nm", "setting": "[1]", "result": 0.1},
      {"measurement": "stabilizing effect of the added compound on ramosetron hydrochloride against light (in words)", "setting": "[2]", "result": "did not exhibit a remarkable stabilizing effect against light"}
    ]},
    {"compound": "Cc1cc(S(=O)(=O)[O-])c2c(C)ccc(C(C)C)cc1-2.[Na+]", "note": "[sodium azulene sulfonate]", "values": [
      {"measurement": "area under the spectrum curve at the wavelength range of 220 nm to 240 nm", "setting": "[1]", "result": 8.4},
      {"measurement": "area under the spectrum curve at the wavelength range of 280 nm to 300 nm", "setting": "[1]", "result": 19.9},
      {"measurement": "stabilizing effect of the added compound on ramosetron hydrochloride against light (in words)", "setting": "[2]", "result": "a remarkable stabilizing effect of ramosetron hydrochloride against the irradiation with light is found; also recorded: exhibited a remarkable stabilizing effect against light"}
    ]},
    {"compound": "methyl hesperidin", "values": [
      {"measurement": "area under the spectrum curve at the wavelength range of 220 nm to 240 nm", "setting": "[1]", "result": 5.4},
      {"measurement": "area under the spectrum curve at the wavelength range of 280 nm to 300 nm", "setting": "[1]", "result": 3.7},
      {"measurement": "stabilizing effect of the added compound on ramosetron hydrochloride against light (in words)", "setting": "[2]", "result": "a remarkable stabilizing effect of ramosetron hydrochloride against the irradiation with light is found; also recorded: exhibited a remarkable stabilizing effect against light"},
      {"measurement": "stabilizing effect of the added compound on ramosetron under a high-temperature and high-humidity condition (in words)", "setting": "[3]", "result": "a remarkable stabilizing effect under a high-temperature and high-humidity condition"}
    ]},
    {"compound": "αG hesperidin", "values": [
      {"measurement": "area under the spectrum curve at the wavelength range of 220 nm to 240 nm", "setting": "[1]", "result": 6.0},
      {"measurement": "area under the spectrum curve at the wavelength range of 280 nm to 300 nm", "setting": "[1]", "result": 5.0},
      {"measurement": "stabilizing effect of the added compound on ramosetron hydrochloride against light (in words)", "setting": "[2]", "result": "a remarkable stabilizing effect of ramosetron hydrochloride against the irradiation with light is found; also recorded: exhibited a remarkable stabilizing effect against light"},
      {"measurement": "stabilizing effect of the added compound on ramosetron under a high-temperature and high-humidity condition (in words)", "setting": "[3]", "result": "a remarkable stabilizing effect under a high-temperature and high-humidity condition"}
    ]}
  ]
}
